Experimental data as given in ChEMBL document CHEMBL5236560, “Structure-Based Discovery of Potent CARM1 Inhibitors for Solid Tumor and Cancer Immunology Therapy” (J Med Chem, 2021).

Key:
[1] = biological target: T1, Histone-arginine methyltransferase CARM1 (Homo sapiens, UniProt Q86X55); assay: Inhibition of human CARM1 (140 to 480 residues) incubated for 15 mins measured after 60 min by AlphaLISA assay
T1 sequence (Q86X55 whole entry): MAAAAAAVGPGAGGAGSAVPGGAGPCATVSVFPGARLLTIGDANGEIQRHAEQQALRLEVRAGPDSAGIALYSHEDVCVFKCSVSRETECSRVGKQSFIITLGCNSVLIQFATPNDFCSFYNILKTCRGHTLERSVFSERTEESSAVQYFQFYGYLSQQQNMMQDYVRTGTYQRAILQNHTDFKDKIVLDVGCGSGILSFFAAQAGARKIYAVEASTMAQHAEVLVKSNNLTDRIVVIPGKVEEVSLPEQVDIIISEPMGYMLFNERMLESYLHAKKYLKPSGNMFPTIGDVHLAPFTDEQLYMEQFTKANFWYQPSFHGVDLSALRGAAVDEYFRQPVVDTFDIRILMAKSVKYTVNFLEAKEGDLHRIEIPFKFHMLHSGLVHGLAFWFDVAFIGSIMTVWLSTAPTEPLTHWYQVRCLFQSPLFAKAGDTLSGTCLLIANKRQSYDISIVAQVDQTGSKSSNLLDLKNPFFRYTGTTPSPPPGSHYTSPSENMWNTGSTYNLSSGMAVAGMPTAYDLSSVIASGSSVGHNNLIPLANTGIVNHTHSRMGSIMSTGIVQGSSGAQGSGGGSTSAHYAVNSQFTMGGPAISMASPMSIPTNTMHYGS

A-375 [2] = assay: Antiproliferative activity against human A-375 cells assessed as cell growth inhibition incubated for 6 days by SRB assay; assay type: functional, cell-based; conditions: A-375, 144 h
BT-549 = assay: Antiproliferative activity against human BT-549 cells assessed as cell growth inhibition incubated for 6 days by SRB assay; assay type: functional, cell-based; conditions: BT-549, 144 h
A-375 [3] = assay: Antitumor activity against human A-375 cells xenografted in po dosed nude mouse assessed as tumor growth inhibition at 75 mg/kg administered once daily measured after 21 days relative to control; assay type: functional; conditions: A-375, 504 h, time 21 day, read-out: TGI
A-375 [4] = assay: Antitumor activity against human A-375 cells xenografted in po dosed nude mouse assessed as tumor growth inhibition at 100 mg/kg administered once daily measured after 21 days relative to control; assay type: functional; conditions: A-375, 504 h, time 21 day, read-out: TGI
[5] = AUClast in ICR mouse at 10 mg/kg, po measured upto 24 hrs by UPLC analysis; assay type: ADME, organism-based; set-up: dose 10 mg/kg, time < 24 hrs, route po; conditions: in vivo
[6] = Metabolic stability in mouse liver microsomes assessed as parent compound remaining measured after 2 hrs; assay type: ADME, Microsome; conditions: read-out: Stability
[7] = Cmax in ICR mouse at 10 mg/kg, po measured upto 24 hrs by UPLC analysis; assay type: ADME, organism-based; set-up: time < 24 hrs, dose 10 mg/kg, route po; conditions: in vivo
[8] = Tmax in ICR mouse at 10 mg/kg, po measured upto 24 hrs by UPLC analysis; assay type: ADME, organism-based; conditions: in vivo
[9] = Metabolic stability in human liver microsomes assessed as parent compound remaining measured after 2 hrs; assay type: ADME, Microsome; conditions: read-out: Stability
[10] = Metabolic stability in dog liver microsomes assessed as parent compound remaining measured after 2 hrs; assay type: ADME, Canis lupus familiaris, Microsome; conditions: read-out: Stability
[11] = Metabolic stability in monkey liver microsomes assessed as parent compound remaining measured after 2 hrs; assay type: ADME, Macaca mulatta, Microsome; conditions: rhesus monkey, read-out: Stability
[12] = Half life in ICR mouse at 10 mg/kg, po measured upto 24 hrs by UPLC analysis; assay type: ADME, organism-based; conditions: in vivo
[13] = AUC(0 to infinity) in ICR mouse at 10 mg/kg, po measured upto 24 hrs by UPLC analysis; assay type: ADME, organism-based; set-up: dose 10 mg/kg, time < 24 hrs, route po; conditions: in vivo
[14] = Metabolic stability in rat liver microsomes assessed as parent compound remaining measured after 2 hrs; assay type: ADME, Microsome; conditions: read-out: Stability

| SMILES | IC50 [1] [nM] | IC50 (A-375 [2]) [nM] | IC50 (BT-549) [nM] | also measured |
| --- | --- | --- | --- | --- |
| Cc1noc(C)c1-c1nc(-c2cccc(CNC(=O)[C@H](C)N)c2)nc(NC2CCOCC2)c1C | > 1000 |  |  |  |
| Cc1c(NC2CCOCC2)nc(-c2cccc(CNC(=O)[C@H](C)N)c2)nc1-c1ccncc1 | > 1000 |  |  |  |
| CNCCNCc1cccc(-c2nc(NC3CCN(S(C)(=O)=O)CC3)c(C)c(-c3c(C)noc3C)n2)c1 | 4.24 | > 50000 | > 50000 |  |
| CNCCNCc1cccc(-c2nc(Nc3ccccc3)c(C)c(-c3cccnc3)n2)c1 | 11.6 | 10900 | 14100 |  |
| CNCCNCc1cccc(-c2nc(-c3c(C)noc3C)c(C)c(N3CCN(S(C)(=O)=O)CC3)n2)c1 | 0.78 | > 50000 | > 50000 |  |
| CNCCNCc1cccc(-c2nc(Nc3ccccc3)c(C)c(-c3c(C)nn(C)c3C)n2)c1 | 19.6 | 6700 | 8200 |  |
| CNCCNCc1cccc(-c2nc(-c3c(C)noc3C)c(C)c(N3Cc4cccnc4C3)n2)c1 | 1.13 | 8200 | 11900 |  |
| CNCCNCc1cccc(-c2nc(NC3CCOCC3)c(C)c(-c3c(C)nn(C)c3C)n2)c1 | 0.65 | > 50000 | > 50000 |  |
| CNCCNCc1cccc(-c2nc(NC3CCOCC3)c(C)c(-c3ccc(OC(F)(F)F)cc3)n2)c1 | 5.13 |  |  |  |
| CNCCNCc1cccc(-c2nc(NC3CCOCC3)c(C)c(-c3cncnc3)n2)c1 | 4.29 | > 50000 | > 50000 |  |
| CNC[C@@H](O)COc1ccc(Cl)c(-c2nc(-c3c(C)noc3C)c(C)c(N3CC4(CCN(C(=O)OC)CC4)C3)n2)c1 |  |  |  | inhibition in vivo at 75 mg/kg (A-375 [3]): 24%; inhibition in vivo at 100 mg/kg (A-375 [4]): 82.6% |
| Cc1c(NC2CCOCC2)nc(-c2cccc(CNC(=O)[C@@H](N)CO)c2)nc1-c1ccccc1 | > 1000 |  |  |  |
| CNCCNCc1cccc(-c2nc(NC3CCOCC3)c(C)c(-c3cc4cccc(OC)c4[nH]3)n2)c1 | 29.4 |  |  |  |
| CNCCNCc1cccc(-c2nc(Cl)c(C)c(NC3CCOCC3)n2)c1 | 29.5 |  |  |  |
| CNCCNCc1cccc(-c2nc(-c3c(C)noc3C)c(C)c(N3CCN(C)CC3)n2)c1 | 13.1 |  |  |  |
| Cc1c(NC2CCOCC2)nc(-c2cccc(CNC(=O)[C@H](C)N)c2)nc1-c1ccccc1 | > 1000 |  |  |  |
| CNCCNCc1cccc(-c2nc(-c3c(C)noc3C)c(C)c(N3CCN(C(C)=O)CC3)n2)c1 | 11.5 |  |  |  |
| Cc1c(NC2CCOCC2)nc(-c2cccc(CNC(=O)[C@@H](N)CO)c2)nc1-c1ccncc1 | > 1000 |  |  |  |
| CNCCNCc1cccc(-c2nc(-c3c(C)noc3C)c(C)c(N3CCS(=O)(=O)CC3)n2)c1 | 2.46 | > 50000 | > 50000 |  |
| Cc1noc(C)c1-c1nc(-c2cccc(CNC(=O)[C@@H](N)CO)c2)nc(NC2CCOCC2)c1C | > 1000 |  |  |  |
| CNCCNCc1cccc(-c2nc(NC3CCOCC3)c(C)c(-c3c(C)noc3C)n2)c1 | 1.63 | > 50000 | > 50000 | AUC(0-t) at 24 h [5]: 199 ng·h/mL; remaining at 2 h [6]: 90%; Cmax [7]: 95.4 ng/mL; Tmax [8]: 1.33 h; remaining at 2 h [9]: 93.1%; remaining at 2 h [10]: 85.5%; remaining at 2 h [11]: 86.1%; half-life [12]: 6.56 h; AUC(0-inf) [13]: 209 ng·h/mL; remaining at 2 h [14]: 93.4% |
| CNCCNCc1cccc(-c2nc(-c3c(C)noc3C)c(C)c(N3Cc4ccccc4C3)n2)c1 | 10.1 |  |  |  |
| CNCCNCc1cccc(-c2nc(-c3c(C)noc3C)c(C)c(N3CCCCC3)n2)c1 | 21.7 |  |  |  |
| CNCCNCc1cccc(-c2nc(-c3c(C)noc3C)c(C)c(N3CCOCC3)n2)c1 | 1.1 | 24700 | > 50000 |  |

More lines, main results first:

| IC50 [1] [nM] | IC50 (A-375 [2]) [nM] | IC50 (BT-549) [nM] | SMILES | also measured |
| --- | --- | --- | --- | --- |
| 11.8 |  |  | CNCCNCc1cccc(-c2nc(NC3CCOCC3)c(C)c(-c3cccc4[nH]ccc34)n2)c1 |  |
| 26.9 |  |  | CNCCNCc1cccc(-c2nc(NC3CCOCC3)c(C)c(-c3ccc(OC)cc3)n2)c1 |  |
| 187 |  |  | CNCCNCc1cccc(-c2nc(Nc3ccccc3)c(C)c(NC3CCOCC3)n2)c1 |  |
| 6.15 |  |  | CNCCNCc1cccc(-c2nc(NC3CCOCC3)c(C)c(-c3ccccn3)n2)c1 |  |
| 2.94 | > 50000 | > 50000 | CNCCNCc1cccc(-c2nc(NC3CCOCC3)c(C)c(-c3ccnn3C)n2)c1 |  |
| 0.92 | 45500 | > 50000 | CNCCNCc1cccc(-c2nc(NC3CCOCC3)c(C)c(-c3cccnc3)n2)c1 |  |
| 4.37 | 12700 | 32000 | CNCCNCc1cccc(-c2nc(NC3CCOCC3)c(C)c(-c3cccc4cnccc34)n2)c1 |  |
| 33.6 |  |  | CNCCNCc1cccc(-c2nc(NC3CCOCC3)c(C)c(OCc3ccccc3)n2)c1 |  |
| 5.2 |  |  | CNCCNCc1cccc(-c2nc(NC3CCOCC3)c(C)c(-c3ccc(S(C)(=O)=O)cc3)n2)c1 |  |
| 2.3 | 24100 | 23700 | CNCCNCc1cccc(-c2nc(NC3CCOCC3)c(C)c(-c3ccc(O)cc3)n2)c1 |  |
| 3.84 | 18200 | 25200 | CNCCNCc1cccc(-c2nc(NC3CCOCC3)c(C)c(-c3ccnc4[nH]ccc34)n2)c1 |  |
| 21.4 |  |  | CNCCNCc1cccc(-c2nc(NC3CCOCC3)c(C)c(-c3cc4ccccc4s3)n2)c1 |  |
| 31.5 |  |  | CNCCNCc1cccc(-c2nc(NCc3ccccc3)c(C)c(NC3CCOCC3)n2)c1 |  |
| 3.68 | 44300 | > 50000 | CNCCNCc1cccc(-c2nc(NC3CCOCC3)c(C)c(-c3ccncc3)n2)c1 |  |
| 3.78 | > 50000 | > 50000 | CNCCNCc1cccc(-c2nc(NC3CCOCC3)c(C)c(-c3cn(C)nc3C)n2)c1 |  |
| 6.07 |  |  | CNCCNCc1cccc(-c2nc(NC3CCOCC3)c(C)c(-c3cccc4ncccc34)n2)c1 |  |
| 10.2 |  |  | CNCCNCc1cccc(-c2nc(NC3CCOCC3)c(C)c(-c3ccccc3)n2)c1 |  |
| 60 |  |  | CNCCNCc1cccc(-c2nc(NC3CCOCC3)c(C)c(Oc3ccccc3)n2)c1 |  |
